One data set concerns Human Hepatoma. Briefly: Cytotoxicity assay (sulforhodamine B, CC50), Human Hepatoma. The class given is cell-based. The following applies: 4 days incubation. The procedure: (§1) Cells were seeded at a rate of between 5×10^3 and 5×10^4/well into 96-well plates in growth medium overnight at 37° C. in a humidified CO2 (5%) atmosphere. New growth medium containing serial dilutions of the drugs was then added. After incubation for 4 days, cultures were fixed in 50% TCA and stained with sulforhodamineB. The optical density was read at 550 nm. The cytotoxic concentration was expressed as the concentration required to reduce the cell number by 50% (CC50).

Another data set concerns MDBK. Briefly: Cytotoxicity assay (sulforhodamine B, CC50), MDBK. The class given is cell-based. The note with it: MDBK cells, 4 days incubation. The procedure:
as §1

Data set [1] has as its system HepG2 cells. The experiment in a line: Phosphorylation assay of nucleoside to active triphosphate. The data set is classed as in vitro ADME. The note with it: 10 μM [3H] labeled compound. On the procedure: To determine the cellular metabolism of the compounds, HepG2 cells were obtained from the American Type Culture Collection (Rockville, Md.), and were grown in 225 cm^2 tissue culture flasks in minimal essential medium supplemented with non-essential amino acids, 1% penicillin-streptomycin. The medium was renewed every three days, and the cells were subcultured once a week. After detachment of the adherent monolayer with a 10 minute exposure to 30 mL of trypsin-EDTA and three consecutive washes with medium, confluent HepG2 cells were seeded at a density of 2.5×10^6 cells per well in a 6-well plate and exposed to 10 μM of [^3H] labeled active compound (500 dpm/pmol) for the specified time periods. The cells were maintained at 37° C. under a 5% CO2 atmosphere. At the selected time points, the cells were washed three times with ice-cold phosphate-buffered saline (PBS). Intracellular active compound and its respective metabolites were extracted by incubating the cell pellet overnight at −20° C. with 60% methanol followed by extraction with an additional 20 μL of cold methanol for one hour in an ice bath. The extracts were then combined, dried under gentle filtered air flow and stored at −20° C. until HPLC analysis.

In the next data set the test system is BVDV (strain NADL). The experiment in a line: Cell Protection Assay (CPA). The class given is cell-based, Bovine Viral Diarrhea virus. On the procedure:
The assay was performed essentially as described by Baginski, S. G.; Pevear, D. C.; Seipel, M.; Sun, S. C. C.; Benetatos, C. A.; Chunduru, S. K.; Rice, C. M. and M. S. Collett “Mechanism of action of a pestivirus antiviral compound” PNAS USA 2000, 97(14), 7981-7986. MDBK cells (ATCC) were seeded onto 96-well culture plates (4,000 cells per well) 24 hours before use. After infection with BVDV (strain NADL, ATCC) at a multiplicity of infection (MOI) of 0.02 plaque forming units (PFU) per cell, serial dilutions of test compounds were added to both infected and uninfected cells in a final concentration of 0.5% DMSO in growth medium. Each dilution was tested in quadruplicate. Cell densities and virus inocula were adjusted to ensure continuous cell growth throughout the experiment and to achieve more than 90% virus-induced cell destruction in the untreated controls after four days post-infection. After four days, plates were fixed with 50% TCA and stained with sulforhodamine B. The optical density of the wells was read in a microplate reader at 550 nm. The 50% effective concentration (EC50) values were defined as the compound concentration that achieved 50% reduction of cytopathic effect of the virus. FIGS. 4 and 5 provide a graphical illustration of the methodology used to arrive at the 50% effective concentration (EC50) values for β-D-2′-CH3-riboG and ribavirin. FIG. 6 compares the results of the CPA for β-D-2′-CH3-riboG, β-D-2′-CH3-riboC, riboU, β-D-2′-CH3-riboA and ribavirin

For a further data set, the system named is YFV-17D. The experiment in a line: microbe, parasite or virus in culture. The following applies: Table 12; reduce the plaque number by 50%; YFV-BHK; read-out: YFV EC50. The data set is classed as cell-based, Yellow fever virus vaccine strain 17D.
Data set [2] deals with Human bone marrow cells (CFU-GM). The experiment in a line: Human bone marrow toxicity, CFU-GM clonogenic assay. The class given is cell-based. The following applies: human bone marrow colony formation, 14 to 18 days; read-out: IC50 CFU-GM. The source says:
(§2) Human bone marrow cells were collected from normal healthy volunteers and the mononuclear population was separated by Ficoll-Hypaque gradient centrifugation as described previously by Sommadossi J-P, Carlisle R. “Toxicity of 3′-azido-3′-deoxythymidine and 9-(1,3-dihydroxy-2-propoxymethyl)guanine for normal human hematopoietic progenitor cells in vitro” Antimicrobial Agents and Chemotherapy 1987; 31:452-454; and Sommadossi J-P, Schinazi R F, Chu C K, Xie M-Y. “Comparison of cytotoxicity of the (−)- and (+)-enantiomer of 2′,3′-dideoxy-3′-thiacytidine in normal human bone marrow progenitor cells” Biochemical Pharmacology 1992; 44:1921-1925. The culture assays for CFU-GM and BFU-E were performed using a bilayer soft agar or methylcellulose method. Drugs were diluted in tissue culture medium and filtered. After 14 to 18 days at 37° C. in a humidified atmosphere of 5% CO2 in air, colonies of greater than 50 cells were counted using an inverted microscope. The results in Table 4 are presented as the percent inhibition of colony formation in the presence of drug compared to solvent control cultures.

The test system of data set [3] is Human bone marrow cells (BFU-E). Briefly: Human bone marrow toxicity, BFU-E clonogenic assay. The note with it: human bone marrow colony formation, 14 to 18 days. The data set is classed as cell-based.
Text: as §2

Data set [4] concerns Bovine Viral Diarrhea virus (BVDV). The experiment in a line: microbe, parasite or virus in culture. The class given is cell-based. The note with it: read-out: BVDV EC50.
The subject of a further data set is BVDV. The experiment in a line: Plaque Reduction Assay. The class given is cell-based, Bovine Viral Diarrhea virus. On the procedure:
For each compound the effective concentration was determined in duplicate 24-well plates by plaque reduction assays. Cell monolayers were infected with 100 PFU/well of virus. Then, serial dilutions of test compounds in MEM supplemented with 2% inactivated serum and 0.75% of methyl cellulose were added to the monolayers. Cultures were further incubated at 37° C. for 3 days, then fixed with 50% ethanol and 0.8% Crystal Violet, washed and air-dried. FIG. 7 is a graphical illustration of the results from the Plaque Reduction Assay. FIG. 8 is an image of BVDV plaque formation in the presence of increasing concentrations of β-D-2′-CH3-riboU.

The test system of a further data set is BVDV (NADL strain). The experiment in a line: Yield Reduction Assay. The data set is classed as cell-based, Bovine Viral Diarrhea virus. On the procedure:
The assay was performed as described by Baginski, S. G.; Pevear, D. C.; Seipel, M.; Sun, S. C. C.; Benetatos, C. A.; Chunduru, S. K.; Rice, C. M. and M. S. Collett “Mechanism of action of a pestivirus antiviral compound” PNAS USA 2000, 97(14), 7981-7986, with minor modifications. Briefly, MDBK cells were seeded onto 24-well plates (2×10^5 cells per well) 24 hours before infection with BVDV (NADL strain) at a multiplicity of infection (MOI) of 0.1 PFU per cell. Serial dilutions of test compounds were added to cells in a final concentration of 0.5% DMSO in growth medium. Each dilution was tested in triplicate. After three days, cell cultures (cell monolayers and supernatants) were lysed by three freeze-thaw cycles, and virus yield was quantified by plaque assay. Briefly, MDBK cells were seeded onto 6-well plates (5×10^5 cells per well) 24 h before use. Cells were inoculated with 0.2 mL of test lysates for 1 hour, washed and overlaid with 0.5% agarose in growth medium. After 3 days, cell monolayers were fixed with 3.5% formaldehyde and stained with 1% crystal violet (w/v in 50% ethanol) to visualize plaques. FIG. 9 is a graphical illustration of the results from the Yield Reduction Assay. FIG. 8 is an image of BVDV yield reduction in the presence of increasing concentrations of β-D-2′-CH3-riboC.

Data set [5] has as its system HepG2 cells. The experiment in a line: Mitochondria toxicity assay (L-lactic acid assay). The class given is cell-based. The following applies: Conc. 10 μM, 4 day drug exposure. The procedure: HepG2 cells were cultured in 12-well plates as described above and exposed to various concentrations of drugs as taught by Pan-Zhou X-R, Cui L, Zhou X-J, Sommadossi J-P, Darley-Usmer V M. “Differential effects of antiretroviral nucleoside analogs on mitochondrial function in HepG2 cells” Antimicrob Agents Chemother 2000; 44:496-503. Lactic acid levels in the culture medium after 4 day drug exposure was measured using a Boehringer lactic acid assay kit. Lactic acid levels were normalized by cell number as measured by hemocytometer count.

Setting [6] is: HepG2 cells, read-out: CC50 HepG2.
The mark [7] stands for this setting: Huh7 cells, read-out: CC50 Huh7.
[8] abbreviates: read-out: Cell Protection (EC50).

The values below come from US20180235993A1 (priority 2000, published 2018).

Like-named read-outs stand apart in the source and are kept apart here.

In general, CC50 refers to the concentration giving 50% cytotoxicity. What is called EC50 is the midpoint of the concentration-response curve. Usually IC50 stands for the concentration that gives 50% inhibition. One may read the EC90 as the point of the concentration-response curve where the effect stands at 90%.

Turning to `C[C@@]1(O)[C@H](O)[C@@H](CO)O[C@H]1n1ccc(=O)[nH]c1=O` [β-D-2'-CH3-riboU], the cytotoxic concentration (CC50) in the data set on Human Hepatoma (setting [6]), with Human Hepatoma (setting [7]) and in the data set on MDBK was above 250 µM each time.
`C[C@@]1(O)[C@H](O)[C@@H](CO)O[C@H]1n1ccc(N)nc1=O` [β-D-2'-CH3-riboC]: the half-maximal cytotoxic concentration (CC50) was 150 µM in the data set with Human Hepatoma (setting [6]), above 250 µM in the data set on Human Hepatoma (setting [7]) and 100 µM in the data set with MDBK.
Turning to `C[C@@]1(O)[C@H](O)[C@@H](COP(=O)(O)OP(=O)(O)OP(=O)(O)O)O[C@H]1n1cnc2c(=O)[nH]c(N)nc21` [β-D-2′-CH3-riboG-TP], the intracellular triphosphate level in the data set on HepG2 cells [1] (8 h) came out at 2.85 pmol/million cells; in the data set with HepG2 cells [1] (24 h) it was 0.91 pmol/million cells; in the data set on HepG2 cells [1] (30 h) it was 3.22 pmol/million cells; in the data set on HepG2 cells [1] (48 h), 6.26 pmol/million cells.
As to `Cc1cn([C@@H]2O[C@H](CO)[C@@H](O)[C@@]2(C)O)c(=O)[nH]c1=O` [β-D-2′-CH3-riboT], the EC50 in the data set with BVDV (strain NADL) (setting [8]) is above 250 µM.
On to `CC1(O)[C@@H](O)[C@@H](CO)O[C@H]1n1cnc2c(=O)[nH]c(N)nc21` (stereo partly drawn) [β-D-2'-CH3-riboG], for which the values for the CC50 with Human Hepatoma (setting [6]), in the data set on Human Hepatoma (setting [7]) and in the data set with MDBK were above 250 µM, above 250 µM and 100 µM, respectively.
As to `C[C@@]1(O)[C@H](O)[C@@H](CO)O[C@H]1n1cnc2c(=O)[nH]cnc21` [β-D-2′-CH3-riboI], in the data set with BVDV (strain NADL) (setting [8]), the concentration giving a half-maximal response (EC50) was 45 µM.
For `C[C@@]1(O)[C@H](O)[C@@H](CO)O[C@H]1n1ccc(=O)[nH]c1=O` [β-D-2′-CH3-riboU], the concentration giving a half-maximal response (EC50) worked out at 33 µM with YFV-17D, 20 µM in data set [4], 20 µM in the data set on BVDV (strain NADL) (setting [8]) and 20 µM in the data set with BVDV (strain NADL) (read-out: EC50). Moreover, the IC50 in data set [2] and in data set [3] was above 100 µM each time. Besides, the EC90 in the data set with BVDV (read-out: EC90) is below 81 µM; in the data set on BVDV (read-out: Plaque Reduction (EC90)), below 81 µM; in the data set with BVDV (NADL strain) it was 24 µM. In addition, the CC50 in the data set on various cell systems was above 100 µM; in the data set on various cell systems (read-out: YFV CC50, Table 12, reduce the viability of cells by 50%, YFV-BHK system) it was above 100 µM; with MDBK cells it was above 250 µM. Besides, the “Conc. for 6-log Reduction” value in the data set on BVDV (NADL strain) is given as 120 μM. In the data set on BVDV (NADL strain), the “Yield Reduction 6 log10 reduction (μM)” value is listed as 120 μM.
For `C[C@@]1(O)[C@H](O)[C@@H](COP(=O)(O)OP(=O)(O)OP(=O)(O)O)O[C@H]1n1ccc(=O)[nH]c1=O` [β-D-2′-CH3-riboU-TP], the intracellular triphosphate level with HepG2 cells [1] (2 h) turned out to be 0.40 pmol/million cells; in the data set on HepG2 cells [1] (4 h), 1.21 pmol/million cells; in the data set on HepG2 cells [1] (8 h), 1.57 pmol/million cells; in the data set on HepG2 cells [1] (24 h), 6.39 pmol/million cells; in the data set on HepG2 cells [1] (30 h), 7.18 pmol/million cells; in the data set with HepG2 cells [1] (48 h), 9.42 pmol/million cells.
Turning to `C[C@@]1(O)[C@H](O)[C@@H](COP(=O)(O)OP(=O)(O)OP(=O)(O)O)O[C@H]1n1cnc2c(N)ncnc21` [β-D-2′-CH3-riboA-TP], the intracellular triphosphate level is on record as 33.1 pmol/million cells with HepG2 cells [1] (2 h); 67.7 pmol/million cells with HepG2 cells [1] (4 h); 147 pmol/million cells in the data set on HepG2 cells [1] (8 h); 427 pmol/million cells with HepG2 cells [1] (24 h); 456 pmol/million cells in the data set on HepG2 cells [1] (30 h); 288 pmol/million cells with HepG2 cells [1] (48 h).
For `C[C@@]1(O)[C@H](O)[C@@H](COP(=O)(O)OP(=O)(O)OP(=O)(O)O)O[C@H]1n1ccc(N)nc1=O` [β-D-2′-CH3-riboC-TP], the intracellular triphosphate level in the data set with HepG2 cells [1] (2 h) is given as 2.24 pmol/million cells; in the data set with HepG2 cells [1] (4 h) it was 3.99 pmol/million cells; in the data set with HepG2 cells [1] (8 h) it was 9.76 pmol/million cells; with HepG2 cells [1] (24 h), 34.9 pmol/million cells; with HepG2 cells [1] (30 h) it was 36.2 pmol/million cells; with HepG2 cells [1] (48 h), 56.4 pmol/million cells.
Consider `CC1(O)[C@@H](O)[C@@H](CO)O[C@H]1n1cnc2c(N)ncnc21` (stereo partly drawn) [β-D-2'-CH3-riboA], for which the CC50 with Human Hepatoma (setting [6]) is 50 to 60 µM; in the data set with Human Hepatoma (setting [7]) it was 40 µM; in the data set on MDBK, 20 µM.
For the compound `O=c1[nH]c(=O)n([C@@H]2O[C@H](CO)[C@@H](O)[C@@H]2F)cc1I` [FIAU, reference compound], in the data set with HepG2 cells [5], the lactate is on record as 3.73 mg/10^6 cell and the “lactate % of Control” value was found to be 170.4%.
